Measured values: the supplement of paper PMC11451515

System: P12-Ichikawa
Experiment: cell viability relative to DMSO control; higher = less cytotoxic
Conditions: 48 h
Outline: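 Cells were incubated for 48 h at 37°C before CellTiter-Glo One luminescence was read. The cells were NOMO1 or SEM (500 cells/well) or P12-Ichikawa (1000 cells/well) leukemia cells, adapted for at least four passages in each medium and seeded in 1536-well plates (5 μl). Dosing used library compounds in DMSO applied by pin over 11 threefold points, 47 μM to 0.79 nM. Viability is the per-plate percentage of DMSO wells, with cell-free wells as background.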

[1] = HPLM + 10% dialyzed FBS, 0.000781 µM
[2] = HPLM + 10% dialyzed FBS, 0.00234 µM
[3] = HPLM + 10% dialyzed FBS, 0.00702 µM
[4] = HPLM + 10% dialyzed FBS, 0.0211 µM
[5] = HPLM + 10% dialyzed FBS, 0.0632 µM
[6] = HPLM + 10% dialyzed FBS, 0.19 µM
[7] = HPLM + 10% dialyzed FBS, 0.569 µM
[8] = HPLM + 10% dialyzed FBS, 1.71 µM
[9] = HPLM + 10% dialyzed FBS, 5.12 µM
[10] = HPLM + 10% dialyzed FBS, 15.4 µM
[11] = HPLM + 10% dialyzed FBS, 46.1 µM
[12] = RPMI 5 mM glucose + 10% FBS, 0.000781 µM
[13] = RPMI 5 mM glucose + 10% FBS, 0.00234 µM
[14] = RPMI 5 mM glucose + 10% FBS, 0.00702 µM
[15] = RPMI 5 mM glucose + 10% FBS, 0.0211 µM
[16] = RPMI 5 mM glucose + 10% FBS, 0.0632 µM
[17] = RPMI 5 mM glucose + 10% FBS, 0.19 µM
[18] = RPMI 5 mM glucose + 10% FBS, 0.569 µM
[19] = RPMI 5 mM glucose + 10% FBS, 1.71 µM
[20] = RPMI 5 mM glucose + 10% FBS, 5.12 µM
[21] = RPMI 5 mM glucose + 10% FBS, 15.4 µM
[22] = RPMI 5 mM glucose + 10% FBS, 46.1 µM
[23] = RPMI 5 mM glucose + 10% dialyzed FBS, 0.000781 µM
[24] = RPMI 5 mM glucose + 10% dialyzed FBS, 0.00234 µM
[25] = RPMI 5 mM glucose + 10% dialyzed FBS, 0.00702 µM
[26] = RPMI 5 mM glucose + 10% dialyzed FBS, 0.0211 µM
[27] = RPMI 5 mM glucose + 10% dialyzed FBS, 0.0632 µM
[28] = RPMI 5 mM glucose + 10% dialyzed FBS, 0.19 µM
[29] = RPMI 5 mM glucose + 10% dialyzed FBS, 0.569 µM
[30] = RPMI 5 mM glucose + 10% dialyzed FBS, 1.71 µM
[31] = RPMI 5 mM glucose + 10% dialyzed FBS, 5.12 µM
[32] = RPMI 5 mM glucose + 10% dialyzed FBS, 15.4 µM
[33] = RPMI 5 mM glucose + 10% dialyzed FBS, 46.1 µM

Structure (SMILES)	cell viability [1] [%]	cell viability [2] [%]	cell viability [3] [%]	cell viability [4] [%]	cell viability [5] [%]	cell viability [6] [%]	cell viability [7] [%]	cell viability [8] [%]	cell viability [9] [%]	cell viability [10] [%]	cell viability [11] [%]	cell viability [12] [%]	cell viability [13] [%]	cell viability [14] [%]	cell viability [15] [%]	cell viability [16] [%]	cell viability [17] [%]	cell viability [18] [%]	cell viability [19] [%]	cell viability [20] [%]	cell viability [21] [%]	cell viability [22] [%]	cell viability [23] [%]	cell viability [24] [%]	cell viability [25] [%]	cell viability [26] [%]	cell viability [27] [%]	cell viability [28] [%]	cell viability [29] [%]	cell viability [30] [%]	cell viability [31] [%]	cell viability [32] [%]	cell viability [33] [%]
O=C(CCCCCCC(=O)Nc1ccccc1)NO	87.9	99.3	100	98.4	110	109	105	98.8	39	5.48	3.81	91.9	97	108	107	110	104	111	96.8	23.3	4.38	3.81	92.4	100	98.1	109	107	103	102	95.6	19.7	5.15	3.53
OCCCNc1cc(-c2ccnc(Nc3cccc(Cl)c3)n2)ccn1	98	99.8	107	109	110	113	65.4	13.6	10.3	8.26	7.93	102	105	105	104	118	87.9	55.6	12.1	7.63	8.26	5.79	94.9	106	106	119	113	100	43.7	11.9	10.5	11	9.06
COC[C@H]1OC(=O)C2=COC3=C2[C@@]1(C)\C4=C(\[C@@H]5CC[C@H](O)[C@@]5(C)C[C@H]4OC(C)=O)C3=O	105	120	85.6	117	120	123	127	123	121	109	68.2	104	121	67.4	118	114	129	128	124	117	101	81.6	100	115	84.9	120	131	126	132	130	116	88.8	58.9
COc1cc(N[S+](=O)([O-])c2ccc(N)cc2)nc(OC)n1	114	111	116	112	125	115	112	109	110	110	107	102	106	109	110	107	110	110	110	105	95.8	103	112	108	114	106	117	113	117	117	104	103	101
Nc1nc(OCc2ccccc2)c2nc[nH]c2n1	108	110	117	115	120	120	120	118	114	112	113	97.9	107	120	117	124	111	114	118	120	120	111	105	114	119	117	121	117	122	120	121	120	119
Cc1[nH]c(/C=C2\C(=O)Nc3ccc([S+](=O)([O-])Cc4c(Cl)cccc4Cl)cc32)c(C)c1C(=O)N1CCC[C@@H]1CN1CCCC1	105	108	99.7	101	98.8	111	108	97.9	91.5	87.4	78.3	99.4	103	105	99.7	94.6	95.3	107	98.4	81.5	85.5	84.4	98	95.8	93.7	101	99	102	95	91.6	69.5	78.1	53
